Consider seven compounds from patent US20210261475A1, “UREA-BASED COMPOSITION COMPRISING ELEMENTAL SULPHUR AND METHOD FOR THE MANUFACTURE THEREOF” (YARA INTERNATIONAL ASA, priority 2018, published 2021).

What all share (format): physicochemical
A short description of one series: pH of MgSO4 grades.
Series [1] in a line: nBTPT stability on YaraVera Amidas (UAS) product during storage, HPLC analysis of nBTPT content. The protocol: For lab scale experiments, 1.2 kg of solid fertilizer material was added to a lab scale drum. […] A residence time of 10 minutes was applied and the rotating speed of the drum was consequently the same in each experiment. […] Before use, the moisture-repellent coating was preheated to 80° C. Larger scale experiments with amounts up to 40 kg of fertilizer material were performed in a concrete mixer. The samples were stored under several conditions, dependent on the type of samples: • Bagged at room temperature (18-25° C.) • Bagged at 40° C. • Open to air at room temperature (18-25° C.) […]

A short description of series [2]: Volatilization measurements (ammonia release, 2 L diffusion kit, Draeger tube). To be noted: YaraVera Amidas product comprising 462 ppm nBTPT, treated with stabilizer (FIG. 1, Table 1). The source says: Through the lid, a […] tube is placed for the measurement of vol % ammonia. The […] tube turns from yellow to bleu/purple when ammonia is absorbed by the tube. The amount of vol % ammonia released can be followed in time. Experiment 1 defines the problem.

“Also recorded” adds a separate entry of the source.

For the compound `O=S(=O)([O-])[O-].[Mg+2]` [MgSO4 99.999%], the pH in the series “pH of MgSO4 grades” was determined as 6.1.
As to `O=S(=O)([O-])[O-].[Na+].[Na+]` [Na2SO4, reference compound], the “Stability of nBTPT (stabilizing effect)” value in series [1] (YaraVera Amidas with 462 ppm nBTPT, open plastic containers at room temperature for 21 days (FIG. 3)) is “negative effect on the stability of nBTPT”.
Regarding `O=S(=O)([O-])[O-].[Mg+2]` [MgSO4 99.5%], the pH in “pH of MgSO4 grades” is on record as 8.5.
As to `[O]=[Ca]` [CaO, calcium oxide], the Ammonia release entry in series [2] was “producing ammonia”.
With `O=S(=O)([O-])[O-].[Mg+2]` [MgSO4, magnesium sulphate], the Ammonia release result in series [2] is “no ammonia release; also recorded: no ammonia is generated”. The “Stability of nBTPT (stabilizing effect)” value in series [1] (UAS with 462 ppm nBTPT, open to air at room temperature 40 days (FIG. 2A) and in bags at 40° C. 8 days (FIG. 2B)) is on record as “comparable with the effect of the prior art compound (CaO)”. In addition, the Stabilizing effect result in series [1] (more than 1 weight % magnesium sulphate in the composition) is given as “did not produce a proportionally better stabilizing effect”.
For the compound `O=S(=O)([O-])[O-].[Ca+2]` [CaSO4], the Ammonia release result in series [2] is given as “no ammonia release”.
Regarding `[O]=[Mg]` [MgO, magnesium oxide, reference compound], the Ammonia release result in series [2] was “producing ammonia”. In series [1] (YaraVera Amidas with 462 ppm nBTPT, MgSO4/MgO combinations (FIG. 4)), the “Stability of nBTPT (stabilizing effect)” value is “more effective than CaO”.
